Measurements published in ChEMBL document CHEMBL1134115, “Antimycobacterial activity of 9-sulfonylated/sulfenylated-6-mercaptopurine derivatives” (Bioorg Med Chem Lett, 2001).
Values after ≈ are worked out from the molar mass of the structure shown.

What was measured:
[1] = Selectivity index (IC50/MIC) was determined; format: functional
Mycobacterium avium = assay: Percent inhibition against Mycobacterium avium at the dose of 12.5 uM using Microplate Alamar Blue Assay (MABA) assay; format: functional
Vero = assay: Cytotoxicity determined in VERO cells at concentrations less than or equal to […] or 10 times the MIC against Mycobacterium tuberculosis H37Rv.; format: functional, cell-based; settings: Chlorocebus sabaeus
[2] = test system: Mycobacterium tuberculosis; assay: Antimycobacterial activity against Mycobacterium tuberculosis H37Rv using Microplate Alamar Blue Assay (MABA) assay; format: functional
[3] = test system: Mycobacterium tuberculosis; assay: Antimycobacterial activity against Mycobacterium tuberculosis wild type (WT, H37Rv); format: functional
[4] = test system: Mycobacterium tuberculosis; assay: Antimycobacterial activity against Mycobacterium tuberculosis Erdman using Microplate Alamar Blue Assay (MABA) assay; format: functional

Compound	Selectivity index [1] [SI]	inhibition at 12.5 µM (Mycobacterium avium) [%]	IC50 (Vero) [µg/mL]	MIC [2] [µg/mL]	MIC [3] [µg/mL]	MIC [4] [µg/mL]
Cc1ccc(S(=O)(=O)n2cnc3c(S)ncnc32)cc1	2.5	73	4 (≈ 13.1 µM)	1.6 (≈ 5.22 µM)	–	–
O=S(=O)(c1ccc(F)cc1)n1cnc2c(S)ncnc21	0.3	70	1 (≈ 3.22 µM)	3.39 (≈ 10.9 µM)	–	–
CC(=O)Nc1ccc(S(=O)(=O)n2cnc3c(S)ncnc32)cc1	> 256	57	> 200	0.78 (≈ 2.23 µM)	0.78 (≈ 2.23 µM)	–
CO[C@H]1/C=C/O[C@@]2(C)Oc3c(C)c(O)c4c(O)c(c(/C=N/N5CCN(C)CC5)c(O)c4c3C2=O)NC(=O)/C(C)=C\C=C\[C@H](C)[C@H](O)[C@@H](C)[C@@H](O)[C@@H](C)[C@H](OC(C)=O)[C@@H]1C [RIFAMPIN]	> 8000	–	> 1000	0.125 (≈ 0.152 µM)	0.125 (≈ 0.152 µM)	–
O=S(=O)(c1ccc(Br)cc1)n1cnc2c(S)ncnc21	2.6	81	2 (≈ 5.39 µM)	0.78 (≈ 2.1 µM)	–	–
O=S(=O)(c1ccc(Cl)cc1)n1cnc2c(S)ncnc21	0.32	60	1 (≈ 3.06 µM)	3.13 (≈ 9.58 µM)	3.13 (≈ 9.58 µM)	–
O=[N+]([O-])c1ccccc1Sn1cnc2c(S)ncnc21	6.4	75	5 (≈ 16.4 µM)	0.78 (≈ 2.55 µM)	–	–
Nc1cccc(S(=O)(=O)n2cnc3c(S)ncnc32)c1	150	68	468 (≈ 1520 µM)	3.13 (≈ 10.2 µM)	3.13 (≈ 10.2 µM)	–
O=[N+]([O-])c1ccccc1S(=O)(=O)n1cnc2c(S)ncnc21	40	50	64 (≈ 190 µM)	1.56 (≈ 4.62 µM)	–	–
Nc1ccc(S(=O)(=O)n2cnc3c(S)ncnc32)cc1	> 128	63	> 100	0.78 (≈ 2.54 µM)	–	–
CN(C)S(=O)(=O)n1cnc2c(=S)[nH]cnc21	> 513	40	> 200	0.39 (≈ 1.5 µM)	0.39 (≈ 1.5 µM)	–
O=[N+]([O-])c1ccc(Sn2cnc3c(S)ncnc32)cc1	58	79	45 (≈ 147 µM)	–	0.78 (≈ 2.55 µM)	0.78 (≈ 2.55 µM)
